Source: ChEMBL document CHEMBL1126386, “-alkoxyphenol leukotriene B4 receptor antagonists: effect of a chroman carboxylic acid” (Bioorg Med Chem Lett, 1992)

Experiments:
[1] = target: Leukotriene B4 receptor (Homo sapiens, UniProt Q9NPC1+Q15722); experiment: Inhibition of LTB4-induced CD11b/CD18 integrin up-regulation in human neutrophils; assay type: functional
[2] = test system: Cavia porcellus; experiment: Compound was tested for antagonizing effect of LTB4-induced gas trapping in the guinea pig when administered intravenously; assay type: functional; conditions: iv

CCCc1c(OCCCOc2cc(O)c(OCC)cc2CC)ccc2c1OC(C(=O)O)CC2 (configuration not stated)
IC50 [1]: 195 nM
ED50 [2]: 0.012 mg/kg
